{"source": "patent US20250325402A1", "about": "“M[…] FOR I[…] METHODS OF USING THE SAME” ([…]., priority 2024, published 2025)", "key": {"[1]": {"assay": "In vivo ocular biodistribution of ICG with OCLX-SCDD POC4 and Clearside needles at 1100 μm", "parameters": "species or system Yucatan minipig", "details": "for ICG stained area, total coverage area: ICG 5 mg/ml SC, 1 h after injection", "from_the_text": "In Vivo assessment of ocular biodistribution of ICG with the OCLX-SCDD POC prototype and Clearside needles at 1100 μm in pig eyes.\nSuprachoroidal injections enable precise, targeted delivery to the retina, retinal pigment epithelium (RPE), and choroid, potentially offering higher bioavailability to the diseased tissues while minimizing impact on anterior segment tissues. To improve the outcome of gene therapy for AMD through the SCS, we tested if the POC4 SCDD results in ICG dye at the back of the eye. […] This allows entrance into the suprachoroidal space in 4-month-old male minipigs (n=4). Indocyanine Green (ICG), 5 mg/ml, was injected using Clearside 1100 μm (OS) or POC4 of the OCLX-SCDD 1100 μm prototype device (OD) as follows: (1) Mark and confirm selected injection site; (2) Insert the microneedle, creating a small dimple on the ocular surface to allow the tissue to displace gently while the needle enters the suprachoroidal space; (3) Inject slowly and deliberately over 5 seconds to decrease discomfort; (4) After finishing the drug injection, hold the microinjector in place for an additional 3-5 seconds. Light pressure should be applied with a cotton swab after microinjector removal for about 5 seconds; and (5) Perform OCT imaging. (6) Euthanasia was performed according to the IACUC protocol, and 1 hour after injection, eyes were microdissected to assess ICG distribution.\nThe ICG stained area was measured with Image-pro Plus 6 equipment. […] One of four eyes injected with the OCLX-SCDD 1100 μm POC prototype device had trace amounts of ICG in the vitreous. Based on the results in FIG. 12, to avoid intravitreal injection, alpha prototypes were redesigned to have a shorter length, targeting 925 μm, and future pig studies were performed with this needle length."}, "[2]": {"parameters": "species or system pig", "from_the_text": "Ex vivo assessment of ocular biodistribution of ICG with OCLX-SCDD Proof of Concept (POC) prototypes and Clearside needles at 900 and 1100 μm in pig eyes.\nIn this non-GLP study, we evaluated the ability of OCLX-SCDD to deliver accurately to the suprachoroidal space (SCS) and determined the optimal needle length for effective delivery. […] Ex vivo testing involved a comparative analysis of the dye's ocular biodistribution between OCLX-SCDD POCs 1-4 and the established Clearside device, allowing us to determine whether the new design offers improved delivery accuracy and effectiveness. Forty pig eyes were obtained from a farm 1 day prior to testing and SC 120 μl injections (5 mg/ml) were performed (one supertemporal injection site/eye) with ICG. Needles used included 900 μm and 1100 μm length samples from both Oculogenex and Clearside (CLS-900 and CLS-1100). One hour after injection, dissection of the eyes was performed. Images were taken with an iPhone 15 Pro camera after removal of retina, RPE/Choroidal tissue. The ICG-stained area was measured by a masked reader with Image-pro Plus 6 (Media Cybernetisc, Rockville, MD, USA) to objectively assess ICG distribution through software."}, "[3]": {"parameters": "species or system Yucatan minipig", "details": "minipig, in vivo", "from_the_text": "OCLX-SCDD alpha prototype targeting of the SC space with ICG in pig eyes (FIG. 12).\nSuprachoroidal injections enable precise, targeted delivery to the retina, retinal pigment epithelium (RPE), and choroid, potentially offering higher bioavailability to the diseased tissues while minimizing impact on anterior segment tissues. To improve SC gene therapy outcomes for AMD, we tested the alpha prototype device to determine whether the SCDD results in ICG dye distribution to the posterior pole. […] Indocyanine Green (ICG) (5 mg/ml), OS: 120 μl or OD: 150 μl, was injected using the OCLX-SCDD 925 μm alpha prototype as follows: (1) Mark and confirm selected injection site; (2) Insert the microneedle, being sure to create a small dimple on the ocular surface to allow the tissue to displace gently while the needle enters the suprachoroidal space; (3) Inject slowly and deliberately for 5 seconds; (4) After finishing the drug injection, hold the microinjector in place for an additional 5 seconds. Light pressure should be applied with a cotton swab after microinjector removal for about 5 seconds; and (5) Check IOP after injection. […]\nTo evaluate the effect of SC injection, images were taken after removal of the retina and RPE/Choroidal tissue (FIG. 14). The ICG stained area was measured with Image-pro Plus 6. […]"}}}
{"smiles": "CC1(C)C(/C=C/C=C/C=C/C=C2\\N(CCCCS(=O)(=O)O)c3ccc4ccccc4c3C2(C)C)=[N+](CCCCS(=O)(=O)[O-])c2ccc3ccccc3c21", "note": "[ICG, Indocyanine Green]", "values": [{"measurement": "Comparison of ICG-stained area between POC4 and Clearside 1100 μm device", "setting": "[1]; 1 hour after SC injection and microdissection", "result": "no significant difference"}, {"measurement": "ICG stained area, total coverage area", "setting": "[1]; minipigs in vivo, device Clearside 1100 μm", "result": 55, "unit": "%"}, {"measurement": "ICG stained area, total coverage area", "setting": "[1]; minipigs in vivo, device OCLX-SCDD POC4 1100 μm", "result": 55, "unit": "%"}, {"measurement": "Eyes with trace amounts of ICG in the vitreous", "setting": "[1]; minipigs in vivo, device OCLX-SCDD 1100 μm POC prototype", "result": "One of four"}, {"measurement": "OCLX-SCDD prototypes that delivered ICG dye to the SCS alone, no biodistribution to other ocular tissues", "setting": "[2]", "result": 100, "unit": "%"}, {"measurement": "Eyes with successful targeting of the SC space", "setting": "[3]", "result": 100, "unit": "%"}]}
